Our source for the IC50 values is patent US11142515B2, “Pyrazolyl-ureas as kinase inhibitors” (RESPIVERT LIMITED, priority 2014, dated 2021).

The structures appear in SMILES notation.

The target in assay [1] is T1, p38 MAPKα isoform (MAPK14) (Homo sapiens, UniProt Q16539).
T1 construct: purchased Life Technologies
In words: p38 MAPKα enzyme inhibition (Z-LYTE FRET). The format is biochemical. Particulars: Table 2B, unit inferred; read-out: p38 MAPKα (Enzyme Profile). In outline: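 Activity was measured indirectly as phosphorylation of a MAPKAP-K2-derived FRET peptide. Enzyme (added at 40 ng/mL) was preincubated 2 h at RT with compound (added solutions 40–0.0012 μg/mL).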

Assay [2] addresses T2, p38MAPKγ (MAPK12) (Homo sapiens, UniProt P53778).
T2 construct: purchased Life Technologies
T2 sequence (P53778 1-367): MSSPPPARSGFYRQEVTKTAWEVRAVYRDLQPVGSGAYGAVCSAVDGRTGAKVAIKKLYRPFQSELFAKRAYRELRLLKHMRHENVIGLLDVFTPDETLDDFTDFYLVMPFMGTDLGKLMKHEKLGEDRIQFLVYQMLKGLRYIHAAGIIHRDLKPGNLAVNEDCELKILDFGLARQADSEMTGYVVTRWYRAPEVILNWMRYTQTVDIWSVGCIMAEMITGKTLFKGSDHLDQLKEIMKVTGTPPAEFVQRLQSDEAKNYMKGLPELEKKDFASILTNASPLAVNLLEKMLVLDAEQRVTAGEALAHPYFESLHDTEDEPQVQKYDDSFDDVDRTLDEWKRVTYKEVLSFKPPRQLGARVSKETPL
Nature of the assay: p38 MAPKγ enzyme inhibition (Z-LYTE FRET). The format is biochemical. Particulars: Table 2B, unit inferred; read-out: p38 MAPKγ (Enzyme Profile). In outline: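 Enzyme (added at 800 ng/mL) was preincubated 2 h at RT with compound (solutions of 40 to 0.0012 μg/mL), then FRET peptide (8 μM) and ATP (400 μM), both as added, were reacted 1 h at RT. Protease development followed for 1 h; phosphorylation was read as the coumarin/fluorescein emission ratio.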

T1 sequence (Q16539 whole entry, canonical isoform): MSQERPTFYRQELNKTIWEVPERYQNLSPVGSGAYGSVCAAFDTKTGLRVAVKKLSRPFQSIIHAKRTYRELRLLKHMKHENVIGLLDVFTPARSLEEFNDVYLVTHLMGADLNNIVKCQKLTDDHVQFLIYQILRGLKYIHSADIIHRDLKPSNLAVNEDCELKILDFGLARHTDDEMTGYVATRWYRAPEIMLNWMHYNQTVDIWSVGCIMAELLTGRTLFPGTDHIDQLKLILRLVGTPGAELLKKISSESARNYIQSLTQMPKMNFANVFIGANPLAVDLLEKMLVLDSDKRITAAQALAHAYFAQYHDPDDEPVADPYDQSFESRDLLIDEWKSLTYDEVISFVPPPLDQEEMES

Consider `COc1cc(-n2nc(C(C)(C)C)cc2NC(=O)Nc2ccc(OCc3ccnc(Nc4cnc(C(=O)N5CCCC5)cn4)c3)c3ccccc23)ccc1C` [Example 226, 1-(3-(tert-butyl)-1-(3-methoxy-4-methylphenyl)-1H-pyrazol-5-yl)-3-(4-((2-((5-(pyrrolidine-1-carbonyl)pyrazin-2-yl)amino)pyridin-4-yl)methoxy)naphthalen-1-yl)urea], for which the IC50 in assay [1] is 35 nM; in assay [2] it was more than 13800 nM.
For `COc1cncc(Nc2cc(COc3ccc(NC(=O)Nc4cc(C(C)(C)C)nn4-c4ccc(CO)cc4)c4ccccc34)ccn2)n1` [Example 110, 1-(3-(tert-butyl)-1-(4-(hydroxymethyl)phenyl)-1H-pyrazol-5-yl)-3-(4-((2-((6-methoxypyrazin-2-yl)amino)pyridin-4-yl)methoxy)naphthalen-1-yl) urea], in that order: 1.6 nM and 23 nM.
For `Cc1cc(-n2nc(C(C)(C)C)cc2NC(=O)Nc2ccc(OCc3ccnc(Nc4cnccn4)c3)c3ccccc23)ccn1` [Example 265, 1-(3-(tert-butyl)-1-(2-methyl-pyridin-4-yl)-1H-pyrazol-5-yl)-3-(4-((2-(pyrazin-2-ylamino)pyridin-4-yl)methoxy)naphthalen-1-yl) urea], the IC50 amounted to 11 nM in assay [1] and 57 nM in assay [2].
Consider `CCc1ccc(-n2nc(C(C)(C)C)cc2NC(=O)Nc2ccc(OCc3ccnc(Nc4cnc(C(=O)N5CCCC5)cn4)c3)c3ccccc23)cc1` [Example 229, 1-(3-(tert-butyl)-1-(4-ethyl-phenyl)-1H-pyrazol-5-yl)-3-(4-((2-((5-(pyrrolidine-1-carbonyl)pyrazin-2-yl)amino)pyridin-4-yl)methoxy)naphthalen-1-yl)urea], for which the IC50 in assay [1] was 27 nM; in assay [2] it was more than 14100 nM.
For `Cc1ccc(-n2nc(C(C)(C)C)cc2NC(=O)Nc2ccc(OCc3ccnc(Nc4cncc(N(C)C)n4)c3)c3ccccc23)s1` [Example 111, 1-(3-(tert-butyl)-1-(5-methylthiophen-2-yl)-1H-pyrazol-5-yl)-3-(4-((2-((6-(dimethylamino)pyrazin-2-yl)amino)pyridin-4-yl)methoxy)naphthalen-1-yl)urea], in that order: 33 nM and 125 nM.
For `CN(C)c1ccc(-n2nc(C(C)(C)C)cc2NC(=O)Nc2ccc(OCc3ccnc(Nc4cnccn4)c3)c3ccccc23)cn1` [Example 78] the same measures were 21 nM and 422 nM.
As to `COCCCc1cncc(Nc2cc(COc3ccc(NC(=O)Nc4cc(C(C)(C)C)nn4-c4ccc(C)cc4)c4ccccc34)ccn2)n1` [Example 153, 1-(3-(tert-butyl)-1-(p-tolyl)-1H-pyrazol-5-yl)-3-(4-((2-((6-(3-methoxypropyl)pyrazin-2-yl)amino)pyridin-4-yl)methoxy)naphthalen-1-yl)urea], the IC50 in assay [1] was 20 nM; in assay [2], 77 nM.
For `COCCOc1ccc(-n2nc(C(C)(C)C)cc2NC(=O)Nc2ccc(OCc3ccnc(Nc4cnccn4)c3)c3ccccc23)cc1C` [Example 157, 1-(3-(tert-butyl)-1-(4-(2-methoxyethoxy)-3-methyl-phenyl)-1H-pyrazol-5-yl)-3-(4-((2-(pyrazin-2-ylamino)pyridin-4-yl)methoxy)naphthalen-1-yl) urea] the same measures were 23 nM and more than 14900 nM.
Turning to `Cc1ccc(-n2nc(C(C)(C)C)cc2NC(=O)Nc2ccc(OCc3ccnc(Nc4cnc(C(=O)NCCC(C)(C)O)cn4)c3)c3ccccc23)cc1` [Example 72], the IC50 in assay [1] is 11 nM; in assay [2], 118 nM.
For `COc1cccc(-n2nc(C(C)(C)C)cc2NC(=O)Nc2ccc(OCc3ccnc(Nc4cnc(C)c(C)n4)c3)c3ccccc23)c1` [Example 170, 1-(3-(tert-butyl)-1-(3-methoxyphenyl)-1H-pyrazol-5-yl)-3-(4-((2-((5,6-dimethylpyrazin-2-yl)amino)pyridin-4-yl)methoxy)naphthalen-1-yl)urea], in that order: 35 nM and 329 nM.
For `CCc1cncc(Nc2cc(COc3ccc(NC(=O)Nc4cc(C(C)(C)C)nn4-c4cccc(C)c4)c4ccccc34)ccn2)n1` [Example 141, 1-(3-(tert-butyl)-1-(m-tolyl)-1H-pyrazol-5-yl)-3-(4-((2-((6-ethylpyrazin-2-yl)amino)pyridin-4-yl)methoxy)naphthalen-1-yl)urea] the same measures were 18 nM and 438 nM.
As for `COCc1cnc(Nc2cc(COc3ccc(NC(=O)Nc4cc(C(C)(C)C)nn4-c4cccc(C)c4)c4ccccc34)ccn2)cn1` [Example 195, 1-(3-(tert-butyl)-1-(m-tolyl)-1H-pyrazol-5-yl)-3-(4-((2-((5-(methoxymethyl)pyrazin-2-yl)amino)pyridin-4-yl)methoxy)naphthalen-1-yl) urea], the IC50 in assay [1] amounted to 15 nM; in assay [2] it was 245 nM.
For `Cc1ccc(-n2nc(C(C)(C)C)cc2NC(=O)Nc2ccc(OCc3ccnc(Nc4cnc(C(=O)N5CC[C@H](O)C5)cn4)c3)c3ccccc23)cc1` [Example 126, (S)-1-(3-(tert-butyl)-1-(p-tolyl)-1H-pyrazol-5-yl)-3-(4-((2-((5-(3-hydroxypyrrolidine-1-carbonyl)pyrazin-2-yl)amino)pyridin-4-yl)methoxy)naphthalen-1-yl)urea] the same measures were 47 nM and 187 nM.
`Cc1ccc(-n2nc(C(C)(C)C)cc2NC(=O)Nc2ccc(OCc3ccnc(Nc4cncc(OCC(C)C)n4)c3)c3ccccc23)cc1` [Example 122, 1-(3-(tert-butyl)-1-(p-tolyl)-1H-pyrazol-5-yl)-3-(4-((2-((6-isobutoxypyrazin-2-yl)amino)pyridin-4-yl)methoxy)naphthalen-1-yl) urea]: the IC50 in assay [1] came to 2780 nM; in assay [2], 8740 nM.
With `COCc1ccc(-n2nc(C(C)(C)C)cc2NC(=O)Nc2ccc(OCc3ccnc(Nc4cnccn4)c3)c3ccccc23)cc1` [Example 64], the figures for the IC50 in assay [1] and in assay [2] were 9.7 nM and 39 nM, respectively.
For `CO[C@@H]1CCN(C(=O)c2cnc(Nc3cc(COc4ccc(NC(=O)Nc5cc(C(C)(C)C)nn5-c5cccc(C)c5)c5ccccc45)ccn3)cn2)C1` [Example 199, (R)-1-(3-(tert-butyl)-1-(m-tolyl)-1H-pyrazol-5-yl)-3-(4-((2-((5-(3-methoxy-pyrrolidine-1-carbonyl)pyrazin-2-yl)amino)pyridin-4-yl)methoxy)naphthalen-1-yl)urea] the same measures were 11 nM and more than 13800 nM.
In the case of `Cc1ccc(-n2nc(C(C)(C)C)cc2NC(=O)Nc2ccc(OCc3ccnc(Nc4cnc(C)c(C5CC5)n4)c3)c3ccccc23)cc1` [Example 150, 1-(3-(tert-butyl)-1-(p-tolyl)-1H-pyrazol-5-yl)-3-(4-((2-((6-cyclopropyl-5-methyl-pyrazin-2-yl)amino)pyridin-4-yl)methoxy)naphthalen-1-yl)urea], the IC50 in assay [1] is 25 nM; in assay [2], 229 nM.
For `Cc1ccc(-n2nc(C(C)(C)C)cc2NC(=O)Nc2ccc(OCc3ccnc(Nc4cncc(NC5CC5)n4)c3)c3ccccc23)cc1` [Example 119, 1-(3-(tert-butyl)-1-(p-tolyl)-1H-pyrazol-5-yl)-3-(4-((2-((6-(cyclopropylamino)pyrazin-2-yl)amino)pyridin-4-yl)methoxy)naphthalen-1-yl)urea], the IC50 in assay [1] is 13 nM; in assay [2] it was 175 nM.
For the molecule `CO[C@H]1CCCN(C(=O)c2cnc(Nc3cc(COc4ccc(NC(=O)Nc5cc(C(C)(C)C)nn5-c5ccc(C)cc5)c5ccccc45)ccn3)cn2)C1` [Example 238, (S)-1-(3-(tert-butyl)-1-(p-tolyl)-1H-pyrazol-5-yl)-3-(4-((2-((5-(3-methoxypiperidine-1-carbonyl)pyrazin-2-yl)amino)pyridin-4-yl)methoxy)naphthalen-1-yl)urea], the results for the IC50 in assay [1] and in assay [2] were 19 nM and 151 nM, respectively.
For `CCc1cnc(Nc2cc(COc3ccc(NC(=O)Nc4cc(C(C)(C)C)nn4-c4cccc(C)c4)c4ccccc34)ccn2)cn1` [Example 159, 1-(3-(tert-butyl)-1-(m-tolyl)-1H-pyrazol-5-yl)-3-(4-((2-((5-ethylpyrazin-2-yl)amino)pyridin-4-yl)methoxy)naphthalen-1-yl)urea], in that order: 36 nM and 427 nM.
For `COc1ccc(-n2nc(C(C)(C)C)cc2NC(=O)Nc2ccc(OCc3ccnc(Nc4cnc(C)c(C)n4)c3)c3ccccc23)cc1C` [Example 135, 1-(3-(tert-butyl)-1-(4-methoxy-3-methylphenyl)-1H-pyrazol-5-yl)-3-(4-((2-((5,6-dimethylpyrazin-2-yl)amino)pyridin-4-yl)methoxy)naphthalen-1-yl) urea], in that order: 52 nM and more than 15200 nM.
For `Cc1ccc(-n2nc(C(C)(C)C)cc2NC(=O)Nc2ccc(OCc3ccnc(Nc4cnc(C(=O)NCCO)cn4)c3)c3ccccc23)cc1` [Example 53, 5-((4-(((4-(3-(3-(tert-Butyl)-1-(p-tolyl)-1H-pyrazol-5-yl)ureido)naphthalen-1-yl)oxy)methyl)pyridin-2-yl)amino)-N-(2-hydroxyethyl)pyrazine-2-carboxamide], in that order: 17 nM and 95 nM.
